For the assay, the target named is SARS2 coronavirus 3CL protease (Severe acute respiratory syndrome coronavirus 2 (2019-nCoV) (SARS-CoV-2), UniProt P0DTD1). Briefly: SARS2 Coronavirus 3CL Protease Assay (FRET). Conditions: SARS2 3CLPro FRET assay; 5 nM enzyme, 30 min pre-incubation with compound, 15 uM peptide substrate, 4 h room temperature. The assay is classed as biochemical.

Procedure: The enzymatic activity of SARS2 coronavirus 3CL protease was determined in a FRET (fluorescence resonance energy transfer)-based assay measuring the cleavage of a peptide substrate by recombinantly expressed and purified enzyme. Cleavage of the peptide SEQ ID NO:1 (CPC Scientific) by SARS2 3CL protease was measured in reaction buffer (50 mM Hepes pH 7.5, 0.01% Triton X-100, 0.01% BSA, 2 mM DTT). SARS2 3CL protease (5 nM final concentration) was pre-incubated with compound for 30 minutes before reaction initiation with peptide substrate (15 uM final concentration). Room temperature reactions (4 h) were quenched by addition of a high dose of inhibitor and read on an appropriate plate reader (excitation wavelength=495 nm, emission wavelength=520 nm). Data were analyzed by a standard 4 parameter fit to determine IC50 values.

Take `COC(=O)N[C@H](C(=O)N1C[C@H]2[C@@H](C1C(=O)N[C@@H](CCC(C)(F)F)C(=O)C(=O)NC1CC1)C2(Cl)Cl)C(C)(C)C` (single isomer, unassigned) [Example 106, methyl ((S)-1-((1S,2(S or R),5R)-6,6-dichloro-2-(((S)-1-(cyclopropylamino)-6,6-difluoro-1,2-dioxoheptan-3-yl)carbamoyl)-3-azabicyclo[3.1.0]hexan-3-yl)-3,3-dimethyl-1-oxobutan-2-yl)carbamate]: the concentration for half-maximal inhibition (IC50) is 8 nM. As for `CNC(=O)C(=O)[C@H](CCC(C)(F)F)NC(=O)C1C(C2CC2C)CCN1C(=O)[C@@H](NC(=O)OC)C(C)(C)C` (single isomer, unassigned) [Example 107, methyl ((S)-1-((2(S or R),3(S or R))-2-(((S)-6,6-difluoro-1-(methylamino)-1,2-dioxoheptan-3-yl)carbamoyl)-3-((1(S or R),2(R or S))-2-methylcyclopropyl)pyrrolidin-1-yl)-3,3-dimethyl-1-oxobutan-2-yl)carbamate], the IC50 amounted to 14 nM. With `COC(=O)N[C@H](C(=O)N1CCC(C(F)F)CC1C(=O)N[C@@H](CCC(C)(F)F)C(=O)C(=O)NC1CC1)C(C)(C)C` (single isomer, unassigned) [Example 108, methyl ((S)-1-((2(S or R),4(R or S)-2-(((S)-1-(cyclopropylamino)-6,6-difluoro-1,2-dioxoheptan-3-yl)carbamoyl)-4-(difluoromethyl)piperidin-1-yl)-3,3-dimethyl-1-oxobutan-2-yl)carbamate], the IC50 is 22 nM. To `COC(=O)N[C@H](C(=O)N1CCC(OC(F)F)CC1C(=O)N[C@@H](CCC(C)(F)F)C(=O)C(=O)NC1CC1)C(C)(C)C` (single isomer, unassigned) [Example 109, methyl ((S)-1-((2R,4R or 2S,4S)-2-(((S)-1-(cyclopropylamino)-6,6-difluoro-1,2-dioxoheptan-3-yl)carbamoyl)-4-(difluoromethoxy)piperidin-1-yl)-3,3-dimethyl-1-oxobutan-2-yl)carbamate] belongs 50 nM; to `CNC(=O)C(=O)[C@H](CCC(C)(F)F)NC(=O)C1CCCC(C)N1C(=O)[C@@H](NC(=O)OC)C(C)(C)C` (single isomer, unassigned) [Example 110, methyl ((S)-1-((2S,6S or 2R,6R)-2-(((S)-6,6-difluoro-1-(methylamino)-1,2-dioxoheptan-3-yl)carbamoyl)-6-methylpiperidin-1-yl)-3,3-dimethyl-1-oxobutan-2-yl)carbamate], 61 nM. In the case of `COC(=O)N[C@H](C(=O)N1CCC(OC(F)(F)F)CC1C(=O)N[C@@H](CCC(C)(F)F)C(=O)C(=O)NC1CC1)C(C)(C)C` (single isomer, unassigned) [Example 112, methyl ((S)-1-((2S,4S or 2R,4R)-2-(((S)-1-(cyclopropylamino)-6,6-difluoro-1,2-dioxoheptan-3-yl)carbamoyl)-4-(trifluoromethoxy)piperidin-1-yl)-3,3-dimethyl-1-oxobutan-2-yl)carbamate], the IC50 came to 146 nM. `CNC(=O)C(=O)[C@H](CCC(C)(F)F)NC(=O)C1CC(C(F)(F)F)CCN1C(=O)C(NC(=O)OC)C12CC(F)(C1)C2` (single isomer, unassigned) [Example 115, methyl ((R or S)-2-((2(S or R),4(R or S))-2-(((S)-6,6-difluoro-1-(methylamino)-1,2-dioxoheptan-3-yl)carbamoyl)-4-(trifluoromethyl)piperidin-1-yl)-1-(3-fluorobicyclo[1.1.1]pentan-1-yl)-2-oxoethyl)carbamate]: the IC50 was 35 nM. To `CNC(=O)C(=O)[C@H](CCC(C)(F)F)NC(=O)[C@@H]1[C@H]2CCC[C@H]2CN1C(=O)C(NC(=O)OC)C1CC(F)(F)C1` (single isomer, unassigned) [Example 116, methyl ((S or R)-2-((1S,3aR,6aS)-1-(((S)-6,6-difluoro-1-(methylamino)-1,2-dioxoheptan-3-yl)carbamoyl)hexahydrocyclopenta[c]pyrrol-2(1H)-yl)-1-(3,3-difluorocyclobutyl)-2-oxoethyl)carbamate] belongs 16 nM; to `CC(C)OC(=O)N[C@H](C(=O)N1CC2(CCCCC2)C[C@H]1C(=O)N[C@@H](CCC(C)(F)F)C(=O)C(=O)NC1CC1)C(C)(C)C` [Example 4, Isopropyl ((S)-1-((S)-3-(((S)-1-(cyclopropylamino)-6,6-difluoro-1,2-dioxoheptan-3-yl)carbamoyl)-2-azaspiro[4.5]decan-2-yl)-3,3-dimethyl-1-oxobutan-2-yl)carbamate], 60 nM; to `CC(F)(F)CC[C@H](NC(=O)[C@@H]1CC2(CCCCC2)CN1C(=O)[C@@H](NC(=O)OC1CCCC1)C(C)(C)C)C(=O)C(=O)NC1CC1` [Example 5, Cyclopentyl ((S)-1-((S)-3-(((S)-1-(cyclopropylamino)-6,6-difluoro-1,2-dioxoheptan-3-yl)carbamoyl)-2-azaspiro[4.5]decan-2-yl)-3,3-dimethyl-1-oxobutan-2-yl)carbamate], 81 nM. `COC(=O)N[C@H](C(=O)N1C[C@H]2[C@@H]([C@H]1C(=O)N[C@@H](CCC(C)(F)F)C(=O)C(=O)NC1CC1)C2(C)C)C(C)(C)C` [Example 6, Methyl ((S)-1-((1R,2S,5S)-2-(((S)-1-(cyclopropylamino)-6,6-difluoro-1,2-dioxoheptan-3-yl)carbamoyl)-6,6-dimethyl-3-azabicyclo[3.1.0]hexan-3-yl)-3,3-dimethyl-1-oxobutan-2-yl)carbamate]: the IC50 was found to be 17 nM. As for `COC(=O)N[C@H](C(=O)N1CC2(CCCCC2)C[C@H]1C(=O)N[C@@H](CCC(C)(F)F)C(=O)C(=O)NCc1ccccc1)C(C)(C)C` [Example 7, Methyl ((S)-1-((S)-3-(((S)-1-(benzylamino)-6,6-difluoro-1,2-dioxoheptan-3-yl)carbamoyl)-2-azaspiro[4.5]decan-2-yl)-3,3-dimethyl-1-oxobutan-2-yl)carbamate], the figure is 11 nM; as for `CCNC(=O)C(=O)[C@H](CCC(C)(F)F)NC(=O)[C@@H]1CC2(CCCCC2)CN1C(=O)[C@@H](NC(=O)OC)C(C)(C)C` [Example 8, Methyl ((S)-1-((S)-3-(((S)-1-(ethylamino)-6,6-difluoro-1,2-dioxoheptan-3-yl)carbamoyl)-2-azaspiro[4.5]decan-2-yl)-3,3-dimethyl-1-oxobutan-2-yl)carbamate], 18 nM. As for `COC(=O)N[C@H](C(=O)N1CC2(CCCCC2)C[C@H]1C(=O)N[C@@H](CCC(C)(F)F)C(=O)C(=O)NCC(C)C)C(C)(C)C` [Example 9, Methyl ((S)-1-((S)-3-(((S)-6,6-difluoro-1-(isobutylamino)-1,2-dioxoheptan-3-yl)carbamoyl)-2-azaspiro[4.5]decan-2-yl)-3,3-dimethyl-1-oxobutan-2-yl)carbamate], the figure is 21 nM; as for `COC(=O)N[C@H](C(=O)N1CC2(CCCC2)C[C@H]1C(=O)N[C@@H](CCC(C)(F)F)C(=O)C(=O)NC1CC1)C(C)(C)C` [Example 10, Methyl ((S)-1-((S)-3-(((S)-1-(cyclopropylamino)-6,6-difluoro-1,2-dioxoheptan-3-yl)carbamoyl)-2-azaspiro[4.4]nonan-2-yl)-3,3-dimethyl-1-oxobutan-2-yl)carbamate], 26 nM. On to `COC(=O)N[C@H](C(=O)N1CC2(CCCCC2)C[C@H]1C(=O)N[C@@H](CCC(C)(F)F)C(=O)C(=O)Nc1ccccc1C)C(C)(C)C` [Example 12, Methyl ((S)-1-((S)-3-(((S)-6,6-difluoro-1,2-dioxo-1-(o-tolylamino)heptan-3-yl)carbamoyl)-2-azaspiro[4.5]decan-2-yl)-3,3-dimethyl-1-oxobutan-2-yl)carbamate], for which the half-maximal inhibitory concentration (IC50) amounted to 41 nM. Take `COC(=O)N[C@H](C(=O)N1CC2(CCCCC2)C[C@H]1C(=O)N[C@@H](CCC(C)(F)F)C(=O)C(=O)NC(C)C)C(C)(C)C` [Example 13, Methyl ((S)-1-((S)-3-(((S)-6,6-difluoro-1-(isopropylamino)-1,2-dioxoheptan-3-yl)carbamoyl)-2-azaspiro[4.5]decan-2-yl)-3,3-dimethyl-1-oxobutan-2-yl)carbamate]: the 50% inhibitory concentration (IC50) stood at 49 nM.

With `COC(=O)N[C@@H](C)C(=O)N1CC2(CCCCC2)C[C@H]1C(=O)N[C@@H](CCC(C)(F)F)C(=O)C(=O)NC1CC1` [Example 14, Methyl ((S)-1-((S)-3-(((S)-1-(cyclopropylamino)-6,6-difluoro-1,2-dioxoheptan-3-yl)carbamoyl)-2-azaspiro[4.5]decan-2-yl)-1-oxopropan-2-yl)carbamate], the IC50 turned out to be 69 nM. As for `CC(C)[C@H](NC(=O)OC(C)(C)C)C(=O)N1CC2(CCCCC2)C[C@H]1C(=O)N[C@@H](CCC(C)(F)F)C(=O)C(=O)NC1CC1` [Example 15, Tert-butyl ((S)-1-((S)-3-(((S)-1-(cyclopropylamino)-6,6-difluoro-1,2-dioxoheptan-3-yl)carbamoyl)-2-azaspiro[4.5]decan-2-yl)-3-methyl-1-oxobutan-2-yl)carbamate], the figure is 113 nM; as for `COC(=O)N[C@H](C(=O)N1CC2(CCCCC2)C[C@H]1C(=O)N[C@@H](CCC(C)(F)F)C(=O)C(=O)NC1CCCCC1)C(C)(C)C` [Example 16, Methyl ((S)-1-((S)-3-(((S)-1-(cyclohexylamino)-6,6-difluoro-1,2-dioxoheptan-3-yl)carbamoyl)-2-azaspiro[4.5]decan-2-yl)-3,3-dimethyl-1-oxobutan-2-yl)carbamate], 136 nM; as for `COC(=O)N[C@H](C(=O)N1CC2(CCCCC2)C[C@H]1C(=O)N[C@@H](CCC(C)(F)F)C(=O)C(=O)NCCN1CCOCC1)C(C)(C)C` [Example 17, Methyl ((S)-1-((S)-3-(((S)-6,6-difluoro-1-((2-morpholinoethyl)amino)-1,2-dioxoheptan-3-yl)carbamoyl)-2-azaspiro[4.5]decan-2-yl)-3,3-dimethyl-1-oxobutan-2-yl)carbamate], 137 nM. Turning to `COC(=O)N[C@H](C(=O)N1CC2(CCCCC2)C[C@H]1C(=O)N[C@@H](CCC(C)(F)F)C(=O)C(=O)NC(C)(C)C)C(C)(C)C` [Example 18, Methyl ((S)-1-((S)-3-(((S)-1-(tert-butylamino)-6,6-difluoro-1,2-dioxoheptan-3-yl)carbamoyl)-2-azaspiro[4.5]decan-2-yl)-3,3-dimethyl-1-oxobutan-2-yl)carbamate], the IC50 stood at 42 nM.

For orientation: IC50 means the midpoint of a concentration-inhibition curve.

The values are drawn from patent publication US20250223259A1, “PROTEASE INHIBITORS FOR TREATING OR PREVENTING CORONAVIRUS INFECTION” (Merck Sharp & Dohme LLC, priority 2022, published 2025).
